# Laboratory results from patent US10844092B2, “Peptide for promoting regeneration of dentin or dental pulp tissue” (HysensBio Co., Ltd., priority 2016, dated 2020).
# Legend:
# DSP = assay: Immunostaining of transplanted tissues for DSP; format: in vivo, immunocompromised mice
# Source text: (§1) Briefly, the removed tissues were fixed in 4% paraformaldehyde, decalcified in 10% EDTA (pH 7.4), embedded in paraffin, and then immunostained with anti-DSP and anti-BSP antibodies at a dilution of 1:150 as primary antibodies, and reacted with biotin-labeled goat anti-rabbit IgG (Vector Labs) as secondary antibodies to determine DSP and BSP levels (FIG. 4). In this regard, the tissue transplanted with an implant including none of the peptides of the present invention was used as a control group.
# (§2) In this regard, a tissue transplanted with an implant including none of the peptides of the present invention was used as a control group.
# BSP = assay: Immunostaining of transplanted tissues for BSP; format: in vivo, immunocompromised mice
# Source text: as §1, §2
# [1] = tested on: root canal spaces of human teeth; assay: Implant transplanted into root canal spaces of human teeth (H-E, SEM); format: in vivo; conditions: 6 weeks
# Protocol: Reportedly, the dentinal wall and the empty pulp cavity of a natural tooth provide the specific local environment for the regeneration of dentin/pulp-like tissues by dental pulp cells (Huang G T, et al. (2010) Tissue engineering. Part A 16(2):605-615). Therefore, formation of dentin/pulp-like tissues in root canal spaces was evaluated.
# In detail, among the implants prepared in Example 3-1, a comparative implant or an implant including the peptide of Group 12 (SEQ ID NO: 96) at a concentration of 10 μg/ml was transplanted into the root canal spaces of human teeth for 6 weeks, and dentin dental pulp-like tissues formed in the respective implants were subjected to hematoxylin-eosin (H-E) staining according to the method of Example 3-1, and photographed by a scanning electron microscope according to the method of Example 3-7 (FIG. 9).
# [2] = tested on: physiologic dentin (tertiary dentin); assay: Indirect pulp capping canine model, physiologic (tertiary) dentin formation; format: in vivo, dogs; conditions: 1.5 μg, 3 weeks
# Source text: In detail, to establish dentin-damaged canine models by indirect pulp capping, a part of enamel in the cervical part was removed from the premolars of 12-month-old adult dogs by using a dental bur. The dentin was shallowly removed according to the exposure degree of the dentin to form a shallow cavity, thereby establishing a shallow cavity model. The dentin was deeply removed such that the dental pulp was seen through, but not exposed to the outside, thereby establishing a deep cavity model. The models were treated with the control group, the peptide of Group 11, or the peptide of Group 12. 3 weeks later, the adult dogs were euthanized, and teeth were extracted therefrom.
# (§3) The extracted teeth were fixed in 4% paraformaldehyde for 2.4 hours, washed with PBS (pH 7.4) several times, and then decalcified with 10% formic acid. The decalcified teeth were embedded in paraffin to prepare tissue sections. The tissue sections were stained with hematoxylin/eosin (H&E), and dentin regeneration capabilities were evaluated by histological analysis.
# [3] = tested on: physiologic dentin (tertiary dentin); assay: Direct pulp capping canine model, physiologic (tertiary) dentin formation; format: in vivo, dogs; conditions: exposed pulp, peptide 1.5 μg, sealed with MTA, covered with GI cement, 3 weeks, FIG. 12
# Protocol: In detail, to establish dentin-damaged canine models by direct pulp capping, the enamel and dentin in the cervical part were removed from the premolars of 12-month-old adult dogs by using a dental bur so that the dental pulp was exposed to the outside. The models were treated with the control group, the peptide of Group 11, or the peptide of Group 12. 3 weeks later, the adult dogs were euthanized and teeth were extracted therefrom.
# as §3, with “24” for “2.4”
# [4] = 6 weeks after transplantation, FIG. 4
# [5] = 12 weeks after transplantation, FIG. 7
sequence,measurement,setting,value
KYKQKRRSYK (Synthetic construct of novel peptide) [SEQ ID NO: 96],DSP expression level,DSP; [4],relatively high DSP expression level
same,DSP expression level,DSP; [5],relatively very high DSP expression levels
same,BSP expression level,BSP; [4],low BSP expression level
same,BSP expression level,BSP; [5],low BSP expression level
same,pulp-like tissue formation inside root canals (H-E),"[1]; 10 μg/ml, FIG. 9",vascularized pulp-like tissues were formed
same,newly formed dentin in root canal (H-E),"[1]; FIG. 9 C, D and D′",newly formed dentin was observed in the existing dentinal wall
same,odontoblast-like cells on existing dentinal wall (H-E),"[1]; FIG. 9 C, D and D′",odontoblast-like cells exhibited a palisade arrangement on the existing dentinal wall
same,odontoblast-like cells on existing dentinal wall (scanning microscopic images),[1]; FIG. 9 G and H,odontoblast-like cells exhibited a palisade arrangement on the existing dentinal wall
same,"dentin regeneration (histological analysis, H&E)","[2]; deep cavity model, together with GI cement, FIG. 11",regeneration of physiologic tertiary dentin (TD) which was continuous with the odontoblast processes of the original dentin structure was observed
same,"dentin regeneration (histological analysis, H&E)","[2]; shallow cavity model, FIG. 10",regeneration of physiologic tertiary dentin (TD) which was continuous with the odontoblast processes of the original dentin structure was observed
same,"dentin regeneration (histological analysis, H&E)",[3],new physiologic dentin (TD) which was continuous with the odontoblast processes of the original dentin was formed
